From patent publication US8470828B2, “Anellated pyridine compounds” (Hoffmann-La Roche Inc., priority 2010, dated 2013)

Key:
human D3 receptor = human D3 receptor (Homo sapiens, UniProt P35462); experiment: Radioligand binding to cloned human D3 receptor expressed in HEK-293 EBNA cells ([3H]-spiperone)
human D2 receptor = biological target: T1, human D2 receptor (Homo sapiens, UniProt P14416); experiment: Radioligand binding to cloned human D2 receptor expressed in HEK-293 EBNA cells ([3H]-spiperone); settings: HEK293 EBNA cell membranes, approximately 0.7 nM [3H]-spiperone, 1 h at RT
T1 construct: expressed in transfected cells; host or cells: HEK293 EBNA cells, transient transfection; membrane preparation
T1 sequence (P14416 whole entry): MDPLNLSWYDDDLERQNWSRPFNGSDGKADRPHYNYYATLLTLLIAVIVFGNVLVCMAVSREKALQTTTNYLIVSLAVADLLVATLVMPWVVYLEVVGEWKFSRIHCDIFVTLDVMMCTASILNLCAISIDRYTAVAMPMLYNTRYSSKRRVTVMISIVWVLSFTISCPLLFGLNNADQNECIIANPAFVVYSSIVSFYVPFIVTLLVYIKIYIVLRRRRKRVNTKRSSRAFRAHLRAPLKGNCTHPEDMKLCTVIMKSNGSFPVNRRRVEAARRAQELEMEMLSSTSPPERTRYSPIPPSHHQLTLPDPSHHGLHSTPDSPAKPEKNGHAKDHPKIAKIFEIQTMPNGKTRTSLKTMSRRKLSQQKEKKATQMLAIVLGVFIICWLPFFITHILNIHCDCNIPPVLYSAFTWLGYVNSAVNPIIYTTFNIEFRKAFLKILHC
Protocol: (§1) HEK293 EBNA cells were transiently transfected with expression plasmids encoding for the human D2 or D3 or for the human 5-HT2A receptor, respectively. The cells were harvested 48 h post-transfection, washed three times with cold PBS and stored at −80° C. prior to use. The pellet was suspended in cold 50 mM Tris-HCl buffer comprising 10 mM EDTA (pH 7.4) and was homogenized with a Polytron (Kinematica A G, Basel, Switzerland) for 20-30 sec at 12.000 rpm. After centrifugation at 48.000×g for 30 min at 4° C., the pellet was resuspended in cold 10 mM Tris-HCl buffer comprising 0.1 mM EDTA (pH 7.4), homogenized, and centrifuged as above. This pellet was further resuspended in a smaller volume of ice cold 10 mM Tris-HCl buffer comprising 0.1 mM EDTA (pH 7.4) and homogenized with a Polytron for 20-30 sec at 12.000 rpm. The protein content of this homogenate was determined with the Bio-Rad (Bradford) Protein Assay (Biorad Laboratories GmbH, München, Germany) according to the instructions of the manufacturer using gamma globulin as the standard. This homogenate was stored at −80° C. in aliquots and thawed immediately prior to use.
(§2) Aliquots of membrane preparations were thawed at RT, resupended in assay buffer (D2, D3: 50 mM Tris-HCl, 120 mM NaCl, 5 mM MgCl2, 1 mM EDTA, 5 mM KCl, 1.5 mM CaCl2, pH=7.4; 5-HT2A: 50 mM Tris-HCl, 10 mM MgCl2, 1 mM EGTA, pH=7.4), homogenized with a Polytron for 20-30 sec at 12.000 rpm and adjusted to a final concentration of approximately 7.5 μg protein/well (D2, D3) and 15 μg protein/well (5-HT2A), respectively.
(§3) The binding affinity (Ki) of the compounds was determined using radioligand binding. Membranes were incubated in a total volume of 200 μl with a fixed concentration of radioligand (final concentration approximately 0.7 nM [^3H]-spiperone for D2, 0.5 nM [^3H]-spiperone for D3, and 1.1 nM [^3H]-ketanserin for 5-HT2A) and ten concentrations of test compound in ranging between 10 μM-0.1 nM for 1 h at RT. At the end of the incubation, the reaction mixtures were filtered on to unifilter 96-well white microplates with bonded GF/C filters (Packard BioScience, Zürich, Switzerland; preincubated for 1 h in 0.1% polyethylenimine (PEI) in assay buffer) with a Filtermate 196 harvester (Packard BioScience) and washed 3 times with cold assay buffer. The nonspecific binding was determined with equally composed reaction mixtures in the presence of 10 μM unlabelled spiperone. Per well 45 μl of Microscint 40 (Perkin Elmer, Schwerzenbach, Switzerland) was added, plates for sealed, shaken for 20 min and counted for 3 min on a Topcount Microplate Scintillation Counter (Can berra Packard S A, Zürich, Switzerland) with quenching correction.
(§4) The CPM value for each duplicate of a concentration of competing compound was averaged (y1), then the % specific binding was calculated according to the equation (((y1−non-specific)/(total binding−non-specific))×100). Graphs were plotted with the % specific binding using XLfit, a curve fitting program that iteratively plots the data using Levenberg-Marquardt algorithm. The single site competition analysis equation used was y=A+((B−A)/(1+((x/C)D))), where y is the % specific binding, A is the minimum y, B is the maximum y, C is the IC50, x is the log 10 of the concentration of the competing compound and D is the slope of the curve (the Hill Coefficient). […] The affinity constant (Ki) was calculated using the Cheng-Prusoff equation Ki=(IC50/1+([L]/Kd), where [L] is the concentration of radioligand and Kd is the dissociation constant of the radioligand at the receptor as determined by the saturation isotherm.

human 5-HT2A receptor = human 5-HT2A receptor (Homo sapiens, UniProt P28223); experiment: Radioligand binding to cloned human 5-HT2A receptor expressed in HEK-293 EBNA cells ([3H]-ketanserin)
human 5-HT2A receptor, sequence (P28223 whole entry): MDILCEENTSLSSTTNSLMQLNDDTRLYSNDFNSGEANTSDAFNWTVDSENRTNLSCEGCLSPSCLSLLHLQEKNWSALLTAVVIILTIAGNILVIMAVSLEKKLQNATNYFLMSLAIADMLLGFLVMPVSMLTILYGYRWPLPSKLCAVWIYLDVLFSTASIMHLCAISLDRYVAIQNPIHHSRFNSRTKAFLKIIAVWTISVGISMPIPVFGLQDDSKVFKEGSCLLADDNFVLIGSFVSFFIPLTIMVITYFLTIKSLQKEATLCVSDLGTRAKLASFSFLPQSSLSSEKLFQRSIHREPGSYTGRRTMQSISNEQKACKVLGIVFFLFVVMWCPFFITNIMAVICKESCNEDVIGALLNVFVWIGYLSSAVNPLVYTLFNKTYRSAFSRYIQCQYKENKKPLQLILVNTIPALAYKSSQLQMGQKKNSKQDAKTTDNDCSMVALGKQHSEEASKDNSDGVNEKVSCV
Protocol: as §1, §2, §3, §4

human D3 receptor, sequence (P35462 whole entry): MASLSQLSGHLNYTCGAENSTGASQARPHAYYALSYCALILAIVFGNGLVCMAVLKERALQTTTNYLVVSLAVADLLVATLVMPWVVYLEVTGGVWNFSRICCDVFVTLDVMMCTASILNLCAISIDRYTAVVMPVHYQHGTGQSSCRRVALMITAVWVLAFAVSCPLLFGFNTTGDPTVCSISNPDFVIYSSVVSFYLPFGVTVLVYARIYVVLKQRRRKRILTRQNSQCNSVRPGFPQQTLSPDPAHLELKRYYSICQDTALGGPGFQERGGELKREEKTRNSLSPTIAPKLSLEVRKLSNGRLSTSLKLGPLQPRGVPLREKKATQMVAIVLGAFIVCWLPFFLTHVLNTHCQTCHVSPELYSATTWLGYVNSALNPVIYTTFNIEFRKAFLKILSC

Row | Ki (human D3 receptor) | Ki (human D2 receptor) | melting point | Ki (human 5-HT2A receptor) | D2 Ki (human D2 receptor) | SMILES
1 | 12.8 nM | 1280 nM | 126.5 °C | 32.9 nM | – | COCC(=O)N[C@H]1CC[C@H](CCN2CCN(c3nccc4c3OCC4)CC2)CC1 [Example 20, trans-N-(4-{2-[4-(2,3-Dihydro-furo[2,3-c]pyridin-7-yl)-piperazin-1-yl]-ethyl}-cyclohexyl)-2-methoxy-acetamide]
2 | 4.36 nM | 680 nM | 187 °C | 52.1 nM | – | CS(=O)(=O)CC(=O)N[C@H]1CC[C@H](CCN2CCN(c3nccc4c3OCC4)CC2)CC1 [Example 21, trans-N-(4-{2-[4-(2,3-Dihydro-furo[2,3-c]pyridin-7-yl)-piperazin-1-yl]-ethyl}-cyclohexyl)-2-methanesulfonyl-acetamide]
3 | 3.34 nM | 247 nM | 221 °C | 14.7 nM | – | O=C(N[C@H]1CC[C@H](CCN2CCN(c3nccc4c3OCC4)CC2)CC1)c1ccccc1 [Example 22, trans-N-(4-{2-[4-(2,3-Dihydro-furo[2,3-c]pyridin-7-yl)-piperazin-1-yl]-ethyl}-cyclohexyl)-benzamide]
4 | 5.89 nM | 276 nM | 186 °C | 30.3 nM | – | O=C(N[C@H]1CC[C@H](CCN2CCN(c3nccc4c3OCC4)CC2)CC1)C1CCC1 [Example 23, Cyclobutanecarboxylic acid trans-(4-{2-[4-(2,3-dihydro-furo[2,3-c]pyridin-7-yl)-piperazin-1-yl]-ethyl}-cyclohexyl)-amide]
5 | 3.19 nM | 350 nM | 187 °C | 44.9 nM | – | CC(C)CC(=O)N[C@H]1CC[C@H](CCN2CCN(c3nccc4c3OCC4)CC2)CC1 [Example 24, trans-N-(4-{2-[4-(2,3-Dihydro-furo[2,3-c]pyridin-7-yl)-piperazin-1-yl]-ethyl}-cyclohexyl)-3-methyl-butyramide]
6 | 5.78 nM | 531 nM | 147.5 °C | 36.9 nM | – | O=C(CC1CCC1)N[C@H]1CC[C@H](CCN2CCN(c3nccc4c3OCC4)CC2)CC1 [Example 25, trans-2-Cyclobutyl-N-(4-{2-[4-(2,3-dihydro-furo[2,3-c]pyridin-7-yl)-piperazin-1-yl]-ethyl}-cyclohexyl)-acetamide]
7 | 13.9 nM | 481 nM | 220 °C | 70.8 nM | – | CS(=O)(=O)N[C@H]1CC[C@H](CCN2CCN(c3nccc4c3OCC4)CC2)CC1 [Example 26, trans-N-(4-{2-[4-(2,3-Dihydro-furo[2,3-c]pyridin-7-yl)-piperazin-1-yl]-ethyl}-cyclohexyl)-methanesulfonamide]
8 | 11.3 nM | 367 nM | 190 °C | 60.5 nM | – | CCS(=O)(=O)N[C@H]1CC[C@H](CCN2CCN(c3nccc4c3OCC4)CC2)CC1 [Example 27, Ethanesulfonic acid trans-(4-{2-[4-(2,3-dihydro-furo[2,3-c]pyridin-7-yl)-piperazin-1-yl]-ethyl}-cyclohexyl)-amide]
9 | 7.76 nM | 425 nM | 246 °C | 31.3 nM | – | O=C(CO)N[C@H]1CC[C@H](CCN2CCN(c3nccc4c3OCC4)CC2)CC1 [Example 28, trans-N-(4-{2-[4-(2,3-Dihydro-furo[2,3-c]pyridin-7-yl)-piperazin-1-yl]-ethyl}-cyclohexyl)-2-hydroxy-acetamide]
10 | 3.34 nM | 184 nM | 197.5 °C | 33.3 nM | – | O=C(CC1CC1)N[C@H]1CC[C@H](CCN2CCN(c3nccc4c3OCC4)CC2)CC1 [Example 30, trans-2-Cyclopropyl-N-(4-{2-[4-(2,3-dihydro-furo[2,3-c]pyridin-7-yl)-piperazin-1-yl]-ethyl}-cyclohexyl)-acetamide]
11 | 2.19 nM | 137 nM | 215.5 °C | 29.7 nM | – | N#CCC(=O)N[C@H]1CC[C@H](CCN2CCN(c3nccc4c3OCC4)CC2)CC1 [Example 31, trans-2-Cyano-N-(4-{2-[4-(2,3-dihydro-furo[2,3-c]pyridin-7-yl)-piperazin-1-yl]-ethyl}-cyclohexyl)-acetamide]
12 | 10.6 nM | 822 nM | 181 °C | 18.9 nM | – | O=C(C[C@H]1COCCO1)N[C@H]1CC[C@H](CCN2CCN(c3nccc4c3OCC4)CC2)CC1 [Example 32, trans-N-(4-{2-[4-(2,3-Dihydro-furo[2,3-c]pyridin-7-yl)-piperazin-1-yl]-ethyl}-cyclohexyl)-2-(S)[1,4]dioxan-2-yl-acetamide]
13 | 4.29 nM | 276 nM | 216.5 °C | 44.2 nM | – | O=C(CC(F)(F)F)N[C@H]1CC[C@H](CCN2CCN(c3nccc4c3OCC4)CC2)CC1 [Example 33, trans-N-(4-{2-[4-(2,3-Dihydro-furo[2,3-c]pyridin-7-yl)-piperazin-1-yl]-ethyl}-cyclohexyl)-3,3,3-trifluoro-propionamide]
14 | 7.43 nM | 172 nM | 195 °C | 28 nM | – | O=C(N[C@H]1CC[C@H](CCN2CCN(c3nccc4c3OCC4)CC2)CC1)C1CCOC1 (stereo partly drawn) [Example 34, Tetrahydro-furan-3-carboxylic acid trans-(4-{2-[4-(2,3-dihydro-furo[2,3-c]pyridin-7-yl)-piperazin-1-yl]-ethyl}-cyclohexyl)-amide]
15 | 8.28 nM | 384 nM | 181 °C | 36.1 nM | – | O=C(C[C@@H]1COCCO1)N[C@H]1CC[C@H](CCN2CCN(c3nccc4c3OCC4)CC2)CC1 [Example 35, trans-N-(4-{2-[4-(2,3-Dihydro-furo[2,3-c]pyridin-7-yl)-piperazin-1-yl]-ethyl}-cyclohexyl)-2-(R)-[1,4]dioxan-2-yl-acetamide]
16 | 7.49 nM | 102 nM | 193 °C | 32.3 nM | – | O=C(N[C@H]1CC[C@H](CCN2CCN(c3nccc4c3OCC4)CC2)CC1)C1CC1 [Example 36, trans-Cyclopropanecarboxylic acid (4-{2-[4-(2,3-dihydro-furo[2,3-c]pyridin-7-yl)-piperazin-1-yl]-ethyl}-cyclohexyl)-amide]
17 | 7.25 nM | 265 nM | 203.5 °C | 34.8 nM | – | CC(C)C(=O)N[C@H]1CC[C@H](CCN2CCN(c3nccc4c3OCC4)CC2)CC1 [Example 37, trans-N-(4-{2-[4-(2,3-Dihydro-furo[2,3-c]pyridin-7-yl)-piperazin-1-yl]-ethyl}-cyclohexyl)-isobutyramide]
18 | 15.5 nM | 2280 nM | 241.5 °C | 16.6 nM | – | O=C(N[C@H]1CC[C@H](CCN2CCN(c3nccc4c3OCC4)CC2)CC1)c1ccc(N2CCOCC2)cc1 [Example 38, trans-N-(4-{2-[4-(2,3-Dihydro-furo[2,3-c]pyridin-7-yl)-piperazin-1-yl]-ethyl}-cyclohexyl)-4-morpholin-4-yl-benzamide]
19 | 6.22 nM | – | 222 °C | 21.9 nM | inactive | O=C(N[C@H]1CC[C@H](CCN2CCN(c3nccc4c3OCC4)CC2)CC1)c1ccnc2ccccc12 [Example 39, Quinoline-4-carboxylic acid trans-(4-{2-[4-(2,3-dihydro-furo[2,3-c]pyridin-7-yl)-piperazin-1-yl]-ethyl}-cyclohexyl)-amide]
20 | 8.93 nM | 1650 nM | 235.5 °C | 22.1 nM | – | O=C(N[C@H]1CC[C@H](CCN2CCN(c3nccc4c3OCC4)CC2)CC1)c1ccc(F)cc1 [Example 40, trans-N-(4-{2-[4-(2,3-Dihydro-furo[2,3-c]pyridin-7-yl)-piperazin-1-yl]-ethyl}-cyclohexyl)-4-fluoro-benzamide]
21 | 33.4 nM | 2350 nM | 177.5 °C | 63.8 nM | – | CN(C)C(=O)CCC(=O)N[C@H]1CC[C@H](CCN2CCN(c3nccc4c3OCC4)CC2)CC1 [Example 41, trans-N-(4-{2-[4-(2,3-Dihydro-furo[2,3-c]pyridin-7-yl)-piperazin-1-yl]-ethyl}-cyclohexyl)-N′,N′-dimethyl-succinamide]
22 | 15.5 nM | 879 nM | 175 °C | 44.4 nM | – | CC(C)CCC(=O)N[C@H]1CC[C@H](CCN2CCN(c3nccc4c3OCC4)CC2)CC1 [Example 42, trans-4-Methyl-pentanoic acid (4-{2-[4-(2,3-dihydro-furo[2,3-c]pyridin-7-yl)-piperazin-1-yl]-ethyl}-cyclohexyl)-amide]
23 | 2.68 nM | 3710 nM | 222.5 °C | 41.2 nM | – | Cc1cc(CC(=O)N[C@H]2CC[C@H](CCN3CCN(c4nccc5c4OCC5)CC3)CC2)on1 [Example 43, trans-N-(4-{2-[4-(2,3-Dihydro-furo[2,3-c]pyridin-7-yl)-piperazin-1-yl]-ethyl}-cyclohexyl)-2-(3-methyl-isoxazol-5-yl)-acetamide]
24 | 16.8 nM | 793 nM | 248.5 °C | 9.91 nM | – | O=C(N[C@H]1CC[C@H](CCN2CCN(c3nccc4c3OCC4)CC2)CC1)C1(O)CC1 [Example 44, 1-Hydroxy-cyclopropanecarboxylic acid trans-(4-{2-[4-(2,3-dihydro-furo[2,3-c]pyridin-7-yl)-piperazin-1-yl]-ethyl}-cyclohexyl)-amide]
25 | 10.1 nM | 731 nM | 183 °C | 50.1 nM | – | CCCC(=O)N[C@H]1CC[C@H](CCN2CCN(c3nccc4c3OCC4)CC2)CC1 [Example 45, trans-N-(4-{2-[4-(2,3-Dihydro-furo[2,3-c]pyridin-7-yl)-piperazin-1-yl]-ethyl}-cyclohexyl)-butyramide]
